Molecules are shown by their SMILES.

The target in this test is T1, human IL-17A (Homo sapiens, UniProt Q16552).
T1 construct: purchased R&D Systems 7955-IL/CF
T1 sequence (Q16552 24-155): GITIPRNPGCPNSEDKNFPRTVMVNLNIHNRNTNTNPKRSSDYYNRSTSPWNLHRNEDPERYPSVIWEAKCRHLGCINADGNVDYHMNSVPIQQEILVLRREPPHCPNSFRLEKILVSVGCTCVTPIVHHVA
Nature of the test: IL-17A AlphaLISA competition assay (block of IL-17A binding to its receptor IL-17RA). Conditions: mean IC50 (n≥2), block of IL-17A binding to IL-17RA. Put shortly: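 Human recombinant IL-17A (7.5 nM stock) pre-incubated 30 min at RT with compound, then IL-17RA/Fc (5 nM stock) added for 90 min; AlphaLISA read with anti-Fc acceptor beads, biotinylated anti-IL-17A antibody (5 nM) and streptavidin donor beads (3 h, dark). IC50 from 4-parameter logistic fit, normalised to DMSO and 4 μM reference inhibitor; n≥2.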
Molecule `COC[C@H](c1ccnc(NC(=O)[C@@H](NC(=O)c2ccnn2C)C2CCC(F)(F)CC2)c1)N1CC(F)(F)CNC1=O` [Example 180, N-((S)-2-((4-((S)-1-(5,5-difluoro-2-oxotetrahydropyrimidin-1(2H)-yl)-2-methoxyethyl)pyridin-2-yl)amino)-1-(4,4-difluorocyclohexyl)-2-oxoethyl)-1-methyl-1H-pyrazole-5-carboxamide] returned an IC50 of 73 nM.
Next, `C[C@H]1CC[C@H]([C@H](NC(=O)c2nonc2C2CC2)C(=O)Nc2cc(C(CO)N3C[C@@H](C(F)(F)F)NC3=O)ccn2)CC1` (single isomer, unassigned) [Example 233, 4-Cyclopropyl-N-((1S)-2-((4-((R or S)-2-hydroxy-1-((S)-2-oxo-4-(trifluoro-methyl)imidazolidin-1-yl)ethyl)pyridin-2-yl)amino)-1-((1r,4S)-4-methylcyclohexyl)-2-oxoethyl)-1,2,5-oxadiazole-3-carboxamide]: 9 nM.
For the molecule `CC(C)n1nccc1C(=O)N[C@H](C(=O)Nc1cc(C(NC(=O)CCC(F)(F)F)C2CC2)ccn1)[C@H]1CC[C@H](C)CC1` (stereo partly drawn) [Example 106, N-((1S)-2-((4-(cyclopropyl(4,4,4-trifluorobutanamido)methyl)pyridin-2-yl)amino)-1-((1r,4S)-4-methylcyclohexyl)-2-oxoethyl)-1-isopropyl-1H-pyrazole-5-carboxamide], the IC50 was 31 nM.
Molecule `O=C(N[C@H](C(=O)Nc1cc(CN2C[C@@H](C(F)(F)F)NC2=O)ccn1)C1CCC(F)(F)CC1)c1ccnn1C1CC1` [Example 14, 1-cyclopropyl-N-((S)-1-(4,4-difluorocyclohexyl)-2-oxo-2-((4-(((S)-2-oxo-4-(trifluoromethyl)imidazolidin-1-yl)methyl)pyridin-2-yl)amino)ethyl)-1H-pyrazole-5-carboxamide] came in with an IC50 of 333 nM.
Molecule `COC[C@H](c1ccnc(NC(=O)C(NC(=O)c2nonc2C2CC2)C2CCC(C)(F)CC2)c1)N1C[C@@H](C(F)(F)F)NC1=O` (single isomer, unassigned) [Example 295] gave a concentration for half-maximal inhibition (IC50) of 25 nM.
The molecule `C[C@H]1CC[C@H]([C@H](NC(=O)c2ccnn2CCC(O)C(F)(F)F)C(=O)Nc2cc(CN3C[C@@H](C(F)(F)F)NC3=O)ccn2)CC1` (single isomer, unassigned) [Example 68] yielded an IC50 of 136 nM.

The values are drawn from patent US20260200928A1, “THERAPEUTIC COMPOUNDS” (Sanofi, priority 2022, published 2026).
